We go through 20 compounds from EP4775577A1, “RAS INHIBITOR” (Tyligand Bioscience (Shanghai) Limited, priority 2023, dated 2025).

Like-named read-outs stand apart in the source and are kept apart here.

Series [1] concerns KRAS G12D mutant AGS cells. The series can be described thus: Proliferation inhibition of AGS cells, CellTiter-Glo assay. Type of series: cell-based, human. The essentials:
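AGS cells at 1500 cells/well in F12K + 10% FBS were exposed for 3 days at 37°C to nine 3-fold dilutions from 10 µM top concentration, in duplicate. Viability read by CellTiter-Glo luminescence; IC50 (nM) from dose-response-inhibition fitting.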

In series [2] the test system is KRAS G12V mutant NCI-H727 cells. The series is described as follows: Proliferation inhibition of NCI-H727 cells, 3D CellTiter-Glo assay (Method B). The note with it: Method B, 3D culture with 0.65% methylcellulose, 5 days, CTG, read-out: NCI-H727 IC50/nM. Type of series: cell-based, human. The essentials:
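Cells grown in 3D medium (RPMI-1640, 10% FBS, 0.65% methylcellulose) overnight, then treated 5 days at 37 °C, 5% CO2 with 9 threefold dilutions from 10 µM top working concentration, duplicate wells. CellTiter-Glo luminescence read; IC50 (nM) fitted by dose-response-inhibition equation.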

The subject of series [3] is KRAS G12S mutant A549 cells. The series is described as follows: Proliferation inhibition of A549 cells, 3D CellTiter-Glo assay. The note with it: Homo sapiens, A549, 120 h, read-out: A549 IC50/nM. It counts as cell-based. Here is the method: A549 cells (Nanjing Kebai Biotechnology Co., Ltd., catalog number CBP60084, adherent, culture medium (F12K Nutrient Mixture+10%FBS (GIBCO, Cat#10091-148) at 37°C, 5%CO2, and 95% humidity.
3D Cell Viability Assay: Cells in the logarithmic growth phase were harvested and counted using a platelet counter. Cell viability was assessed using the trypan blue exclusion method to ensure a viability of over 90%. The 3D cell culture medium was prepared by adding 1% MC (methylcellulose, Sigma, Cat#M0512) F-12K medium and 10% FBS. The cell concentration was adjusted to approximately 7407 cells/mL using the 3D medium, and the methylcellulose (MC) content was set to 0.65%. Then, 135 µL of cell suspension was added to each 96-well clear, flat-bottomed, black-walled plate (Greiner, Cat#655096). The cells in the 96-well plates were cultured overnight at 37°C with 5% CO2.
Drug preparation for IC50 assay: A 10-fold drug solution was prepared using culture medium. […] of the drug solution was added to each well of a 96-well plate seeded with cells to achieve a working concentration of up to 10 µM, with a 3× dilution, and 9 concentrations. 2 replicate wells for each drug concentration were set. The cells in the drug-treated 96-well plates were cultured at 37°C and 5% CO^2 for additional5 days, then CTG assay (CellTiter-Glo® Luminescent Cell Viability Assay (Promega, Cat#G7573)) were performed.
The cell plate was equilibrated to room temperature for 30 minutes and the CTG reagent was thawed. 75 µL of CTG solution was added to each well for detection, and the plate was shaken on an orbital shaker for 5 minutes to lyse the cells. The cell plate was placed at room temperature for 25 minutes to stabilize the cryo-luminescence signal and the cryo-luminescence value was read (EnVision® multi-plate reader, PerkinElmer#2105).
Data was analyzed using GraphPad Prism software. The dose-response-inhibition equation was used to fit the data to obtain the dose-response curve, and the IC50 value (nM) was calculated accordingly. [formula]

A short description of series [4]: Pharmacokinetics in mice. The note with it: mouse, plasma, po, 20 mg/kg.
Description: Male CD-1 mice, aged 6-8 weeks, were purchased from Zhejiang Vital River Laboratory Animal Co., Ltd.
For the PO administration group, compounds were formulated in 0.5% Tween 80 and 99.5% (0.5%MC (400cp)) vehicle or 0.5%MC (400cp) vehicle to a final concentration of 1 mg/mL or 2 mg/mL for each compound. The drug formulation was administered to CD-1 mice via gavage at a dose of 10 mL/kg. Blood samples were collected from the submandibular vein or other suitable means at 15 min, 30 min, 1 h, 2 h, 4 h, 6 h, 8 h, and 24 h after administration. The blood samples were centrifuged at low temperature for 5 minutes, and the plasma was collected and stored at -80°C for analysis.
10 µL of plasma sample was taken, 200 µL of methanol containing an internal standard as a precipitant was added to precipitate plasma proteins, the compounds to be tested in the plasma was extracted, centrifuged at low temperature, and 10 µL of the supernatant was injected. The drug concentration in blood plasma was analyzed by LC-MS/MS. The pharmacokinetic parameters were calculated using Winnonlin based on the blood drug concentration data at different time points.
Setting [5] is: Homo sapiens, AGS, 72 h, 3 days, CTG, read-out: AGS IC50/nM.

As for `CN1CC[C@H](C(F)F)[C@](C)(COc2nc(N3CCOC[C@@](C)(O)C3)c3cc(C(F)(F)F)c(-c4cccc5sc(N)c(C#N)c45)c(F)c3n2)C1` (atropisomer, axis not shown) [Example 5A, (S)-2-amino-4-(2-(((3S,4S)-4-(difluoromethyl)-1,3-dimethylpiperidine-3-yl)methoxy)-8-fluoro-4-((S)-6-hydroxy-6-methyl-1,4-oxazol-4-yl)-6-(trifluoromethyl)quinazoline-7-yl)benzo[b]thiophene-3-carbonitrile], the IC50 in series [1] (setting [5]) was 1.6 nM; in series [2] (Homo sapiens, NCI-H727, 120 h), less than 1.5 nM; in series [3], 16.5 nM.
On the same counts, the results for `CN1CC/C(=C\F)[C@](C)(COc2nc(N3CCOC[C@@](C)(O)C3)c3cc(C(F)(F)F)c(-c4cccc5sc(N)c(C#N)c45)c(F)c3n2)C1` (atropisomer, axis not shown) [Example 6A, (S)-2-amino-4-(8-fluoro-2-(((S,E)-4-(fluoromethylene)-1,3-dimethylpiperidine-3-yl)methoxy)-4-((S)-6-hydroxy-6-methyl-1,4-oxazol-4-yl)-6-(trifluoromethyl)quinazoline-7-yl)benzo[b]thiophene-3-carbonitrile] are 4.7 nM, 1.6 nM and 35.1 nM.
In the case of `[2H]C([2H])([2H])N1CC/C(=C\F)[C@](C)(COc2nc(N3CCCn4nc(C(=O)N(C)C)cc4C3)c3cc(C(F)(F)F)c(-c4c(F)ccc5sc(N)c(C#N)c45)c(F)c3n2)C1` (atropisomer, axis not shown) [Example 68A], the IC50 was less than 1.5 nM in series [1] (setting [5]); 2.4 nM in series [2] (Homo sapiens, NCI-H727, 120 h); 41.8 nM in series [3].
Turning to `C[C@H]1CCn2nc(C(=O)N(C)C)cc2CN1c1nc(OC[C@]2(C)CN(C)CC/C2=C\F)nc2c(F)c(-c3cccc4sc(N)c(C#N)c34)c(C(F)(F)F)cc12` (atropisomer, axis not shown) [Example 123A], the IC50 was less than 1.5 nM in series [1] (setting [5]); less than 1.5 nM in series [2] (Homo sapiens, NCI-H727, 120 h); 33.8 nM in series [3].
`CCN1CC/C(=C\F)[C@](C)(COc2nc(N3Cc4c(COC)c(C(=O)N(C)C)nn4CC[C@@H]3C)c3cc(Cl)c(-c4c(F)ccc5sc(N)c(C#N)c45)c(C(F)F)c3n2)C1` (atropisomer, axis not shown) [Example 241A]: the AUC(0-t) at 8 h in series [4] was found to be 1660 ng·h/mL. Besides, the IC50 in series [1] (setting [5]) came to 8.3 nM; in series [2] (Homo sapiens, NCI-H727, 120 h), 6.5 nM.
Taken in the same sequence, the figures for `[2H]C([2H])([2H])C([2H])([2H])N1CC/C(=C\F)[C@](C)(COc2nc(N3Cc4c(COC)c(C(=O)N(C)C)nn4CC[C@@H]3C)c3cc(Cl)c(-c4c(F)ccc5sc(N)c(C#N)c45)c(F)c3n2)C1` (atropisomer, axis not shown) [Example 243A] were 9960 ng·h/mL, less than 1.5 nM and less than 1.5 nM.
In the case of `CN1CC/C(=C\F)[C@](C)(COc2nc(N3CCCn4nc(C(=O)N(C)C)cc4C3)c3cc(Cl)c(-c4c(F)ccc5sc(N)c(C#N)c45)c(F)c3n2)C1` (atropisomer, axis not shown; (Ra)) [Example 93A, (Ra)-5-(7-(2-amino-3-cyano-5-fluorobenzo[b]thiophene-4-yl)-6-chloro-8-fluoro-2-(((S,E)-4-(fluoromethylene)-1,3-dimethylpiperidine-3-yl)methoxy)quinazoline-4-yl)-N,N-dimethyl-5,6,7,8-tetrahydro-4H-pyrazolo[1,5-a][1,4]diazepine-2-formamide·formate], the IC50 in series [1] (3 days, CTG, read-out: AGS IC50/nM) is less than 1.5 nM; in series [2], 4.1 nM; in series [3], 32.6 nM.
Take `CN1CC/C(=C\F)[C@](C)(COc2nc(N3CCCn4nc(C(=O)N(C)C)cc4C3)c3cc(C(F)(F)F)c(-c4cccc5sc(N)c(C#N)c45)c(F)c3n2)C1` (single isomer, unassigned) [Example 8A]: the IC50 in series [1] (setting [5]) was determined as 1.5 nM; in series [2] (Homo sapiens, NCI-H727, 120 h), 4.4 nM; in series [3] it was 101 nM.
On the same counts, the results for `CN1CC/C(=C\F)[C@](C)(COc2nc(N3CCCn4nc(C(=O)N(C)C)cc4C3)c3cc(C(F)(F)F)c(-c4c(F)ccc5sc(N)c(C#N)c45)c(F)c3n2)C1` (single isomer, unassigned) [Example 28A] are less than 1.5 nM, 1.8 nM and 31.2 nM.
Taken in the same sequence, the figures for `C[C@H]1CCn2nc(C(=O)N(C)C)cc2CN1c1nc(OC[C@]2(C)CN(C)CC/C2=C\F)nc2c(F)c(-c3c(F)ccc4sc(N)c(C#N)c34)c(C3CC3)cc12` (single isomer, unassigned) [Example 162A] were less than 1.5 nM, 2.1 nM and 82.4 nM.
In the case of `CCc1cc2c(N3CCCn4nc(C(=O)N(C)C)c(Cl)c4C3)nc(OC[C@]3(C)CN(C)CC/C3=C\F)nc2c(F)c1-c1c(F)ccc2sc(N)c(C#N)c12` (single isomer, unassigned) [Example 163A], the IC50 in series [1] (Homo sapiens, AGS, 72 h, read-out: AGS IC50/nM, 3 days, CTG) is less than 1.52 nM; in series [2] (Homo sapiens, NCI-H727, 120 h), 3.3 nM; in series [3] it was 86.9 nM.
For the compound `CCc1cc2c(N3Cc4cc(C(=O)N(C)C)nn4CC[C@@H]3C)nc(OC[C@]3(C)CN(C)CC/C3=C\F)nc2c(F)c1-c1c(F)ccc2sc(N)c(C#N)c12` (single isomer, unassigned) [Example 164A], the IC50 was less than 1.5 nM in series [1] (setting [5]); less than 1.5 nM in series [2] (Homo sapiens, NCI-H727, 120 h); 48 nM in series [3].
With `[2H]C([2H])([2H])N1CC/C(=C\F)[C@](C)(COc2nc(N3Cc4cc(C(=O)N(C)C)nn4CC[C@@H]3C)c3cc(CC)c(-c4c(F)ccc5sc(N)c(C#N)c45)c(F)c3n2)C1` (single isomer, unassigned) [Example 173A], the IC50 in series [1] (setting [5]) was less than 1.5 nM; in series [2] (Homo sapiens, NCI-H727, 120 h), less than 1.5 nM; in series [3], 43.5 nM.
On to `[2H]C([2H])([2H])N1CC[C@H](C(F)F)[C@](C)(COc2nc(N3Cc4cc(C(=O)N(C)C)nn4CC[C@@H]3C)c3cc(CC)c(-c4c(F)ccc5sc(N)c(C#N)c45)c(F)c3n2)C1` (single isomer, unassigned) [Example 174A], for which the IC50 in series [1] (setting [5]) is less than 1.5 nM; in series [2] (Homo sapiens, NCI-H727, 120 h), 2.5 nM; in series [3], 51.9 nM.
Taken in the same sequence, the figures for `CCc1cc2c(N3Cc4cc(C(=O)N(C)C)nn4CC[C@@H]3C)nc(OC[C@]3(C)CN(CC)CC[C@@H]3C(F)F)nc2c(F)c1-c1c(F)ccc2sc(N)c(C#N)c12` (single isomer, unassigned) [Example 176A] were less than 1.5 nM, less than 1.5 nM and 42.6 nM.
Taken in the same sequence, the figures for `[2H]C([2H])([2H])N1CC[C@H](C(F)F)[C@](C)(COc2nc(N3CCOC[C@@](C)(O)C3)c3cc(C(F)(F)F)c(-c4ccc(F)c5sc(N)c(C#N)c45)c(F)c3n2)C1` [Example 55] were 13.1 nM, 2.4 nM and 40.7 nM.
Regarding `[2H]C([2H])([2H])N1CC[C@H](C(F)F)[C@](C)(COc2nc(N3CCOC[C@@](C)(O)C3)c3cc(C(F)(F)F)c(-c4c(F)ccc5sc(N)c(C#N)c45)c(F)c3n2)C1` [Example 65A], the IC50 was found to be 1.5 nM in series [1] (setting [5]) and 26.1 nM in series [3].
Consider `CN1CC/C(=C\F)[C@](C)(COc2nc(N3CCCn4nc(C(=O)N(C)C)c(Cl)c4C3)c3cc(C(F)(F)F)c(-c4cccc5sc(N)c(C#N)c45)c(F)c3n2)C1` [Example 124], for which the IC50 is less than 1.5 nM in series [1] (setting [5]); 2.2 nM in series [2] (Homo sapiens, NCI-H727, 120 h); 23.9 nM in series [3].
Taken in the same sequence, the figures for `CN1CC/C(=C\F)[C@](C)(COc2nc(N3CCCn4nc(C(=O)N(C)C)c(C#N)c4C3)c3cc(C(F)(F)F)c(-c4c(F)ccc5sc(N)c(C#N)c45)c(F)c3n2)C1` [Example 150] were less than 1.5 nM, less than 1.5 nM and 40.3 nM.
For `CN1CC/C(=C\F)[C@](C)(COc2nc(N3CCCn4nc(C(=O)N(C)C)c(Cl)c4C3)c3cc(C(F)(F)F)c(-c4c(F)ccc5sc(N)c(C#N)c45)c(F)c3n2)C1` [Example 160], the IC50 is less than 1.5 nM in series [1] (setting [5]); less than 1.5 nM in series [2] (Homo sapiens, NCI-H727, 120 h); 11.1 nM in series [3].
